Measured values reported in ChEMBL document CHEMBL1201862, “PubChem BioAssay data set” (2004).
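A five-concentration, 48-hour dose response in 96-well plates underlies each endpoint, interpolated linearly between surrounding concentrations. GI50 marks 50% less growth.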 The source made the active and inactive calls. Rule as the data show it: active = GI50 up to about 1.1 µM and inactive = higher.

Assays:
Experiment in all cases: inhibition of tumour cell growth, NCI panel, 48 h
[1] = system: RPMI-8226
[2] = system: SF-539
[3] = system: SNB-75
[4] = system: SK-MEL-5
[5] = system: CAKI-1
[6] = system: NCI-H460
[7] = system: K562
[8] = system: SR
[9] = system: SK-MEL-28
[10] = system: HT-29
[11] = system: UO-31
[12] = system: HCC 2998
[13] = system: HCT-116
[14] = system: IGROV-1
[15] = system: RXF 393
[16] = system: MCF7
[17] = system: MDA-MB-231
[18] = system: Hs-578T
[19] = system: BT-549

Measured: GI50

CC(C)N(C(=O)C12C3C4C1C1C2C3C41C#N)C(C)C (stereo not drawn)
inactive: [1] > 46.7 µM | [2] > 100 µM | [3] > 84.7 µM | [4] > 100 µM | [5] > 100 µM | [6] > 100 µM | [7] > 69.2 µM | [8] 20.2 µM | [9] > 100 µM | [10] > 100 µM | [11] > 100 µM | [12] > 100 µM | [13] > 100 µM | [14] > 100 µM | [15] > 100 µM

Cc1ccc(/C=c2\cc3oc(=O)c4cccc(c4-3)c2=O)cc1
inactive: [16] > 100 µM | [1] 31.2 µM | [2] > 100 µM | [3] > 100 µM | [5] > 100 µM | [6] > 100 µM | [7] 33.3 µM | [8] 34.1 µM | [9] > 100 µM | [10] > 100 µM | [11] > 100 µM | [17] > 100 µM | [12] > 100 µM | [13] > 100 µM | [14] 88.3 µM

COC1CC(OS(=O)(=O)c2ccc(C)cc2)C(OC(=O)c2ccccc2)C(C)O1 (stereo not drawn)
inactive: [1] > 100 µM | [2] > 10 µM | [3] 99.5 µM | [4] > 10 µM | [5] > 10 µM | [6] > 10 µM | [7] > 10 µM | [8] > 10 µM | [9] > 10 µM | [10] > 10 µM | [11] > 10 µM | [12] > 10 µM | [13] > 10 µM | [14] > 10 µM | [15] 88.5 µM

O=C(NCCS(=O)(=O)N1C(=O)C2CCCN2C(=O)[C@@H]1Cc1ccccc1)OCc1ccccc1 (stereo partly drawn)
inactive: [1] 23.3 µM | [2] 76.6 µM | [3] 33.3 µM | [4] 47.4 µM | [5] > 100 µM | [6] 40.4 µM | [7] 47.9 µM | [8] 57.1 µM | [9] 78.3 µM | [10] 42.8 µM | [11] 28.2 µM | [12] 24 µM | [13] 39.5 µM | [14] 72.6 µM | [15] 38 µM

CC#Cc1c(C#CC)c(OC)c2c(c1OC)C(=O)c1ccccc1C2=O
inactive: [1] 39.2 µM | [4] 49.1 µM | [5] 47.9 µM | [6] > 100 µM | [7] > 100 µM | [8] 46.6 µM | [9] > 100 µM | [10] > 100 µM | [11] 26 µM | [12] > 100 µM | [13] 15.9 µM | [14] 73.6 µM | [15] 10.7 µM

NNC(=S)N/N=C(/C(=O)Nc1cc(Cl)ccc1Cl)C1C(=O)Nc2ccccc2[S+]1[O-] (stereo not drawn)
inactive: [2] > 100 µM | [3] > 100 µM | [4] > 100 µM | [5] > 100 µM | [6] > 100 µM | [7] > 100 µM | [8] 94.2 µM | [9] > 100 µM | [10] > 100 µM | [11] > 100 µM | [12] > 100 µM | [13] > 100 µM | [14] > 100 µM | [15] > 100 µM

O=C(OC1=CCN(Br)C1=O)C1=C(O)C(=O)N(Br)C1
inactive: [16] 33 µM | [1] 24.4 µM | [18] 27 µM | [3] 24.3 µM | [19] 18.2 µM | [4] 17.2 µM | [5] 58.7 µM | [6] 38.3 µM | [7] 29.1 µM | [8] 21.4 µM | [9] 18.8 µM | [11] 45.4 µM | [17] 29.2 µM | [12] 53.8 µM | [13] 17.8 µM | [14] 39.1 µM | [15] 20 µM

CCCCCCCCCCCC(=O)OCCOCCOCCOCCOCCOC(=O)CCCCCCCCCCC
inactive: [1] > 100 µM | [3] > 100 µM | [4] > 100 µM | [5] > 100 µM | [6] > 100 µM | [7] > 100 µM | [8] > 100 µM | [9] > 100 µM | [10] > 100 µM | [11] > 100 µM | [12] > 100 µM | [13] > 100 µM | [14] > 100 µM | [15] > 100 µM

COc1ccc(CNc2nc3ccccc3nc2-c2cccs2)cc1
inactive: [16] 28.3 µM | [1] 21.5 µM | [18] 23.4 µM | [2] > 100 µM | [3] > 100 µM | [19] 22.1 µM | [4] 23.8 µM | [5] 15.1 µM | [6] 24.2 µM | [7] 23.6 µM | [8] 15.6 µM | [9] > 100 µM | [10] 18.9 µM | [11] 15.4 µM | [17] 23.6 µM | [12] 45.6 µM | [13] 26.7 µM | [14] 68.9 µM | [15] 23.8 µM

COc1ccc(CC2c3cc(OC)c(OC)c(OC)c3CC[N+]2(C)C)cc1Oc1ccc(CC2c3cc4c(c(OC)c3CC[N+]2(C)C)OCO4)cc1 (stereo not drawn)
inactive: [16] 96.2 µM | [18] 80.9 µM | [3] 91.6 µM | [19] > 100 µM | [4] > 100 µM | [5] > 100 µM | [6] > 100 µM | [7] > 100 µM | [8] > 100 µM | [9] > 100 µM | [10] > 100 µM | [11] > 100 µM | [17] > 100 µM | [12] > 100 µM | [13] > 100 µM | [14] > 100 µM

C=CC(=O)NC(=N)NC#N
inactive: [16] > 68.7 µM | [1] 22 µM | [2] 164 µM | [3] 155 µM | [4] 165 µM | [5] 69 µM | [6] 176 µM | [7] 35.9 µM | [8] 150 µM | [9] 131 µM | [10] 189 µM | [11] 176 µM | [12] 182 µM | [13] 189 µM | [14] 181 µM | [15] > 73.5 µM

CC1=NN(c2nc(N)nc(CN3CCOCC3)n2)C(C)(C)C1
inactive: [16] > 100 µM | [1] > 100 µM | [18] > 100 µM | [2] > 100 µM | [3] > 100 µM | [19] > 100 µM | [4] 73.3 µM | [5] 20.2 µM | [6] > 100 µM | [7] > 100 µM | [8] 30.1 µM | [9] > 100 µM | [10] > 100 µM | [11] 18.1 µM | [17] > 100 µM | [12] > 100 µM | [13] > 100 µM | [14] 16.9 µM | [15] > 100 µM

O=C(Nc1cc(C(F)(F)F)ccc1Cl)C(=O)C(C(=O)c1ccc2ccccc2c1)C1OC(=O)c2ccccc21 (stereo not drawn)
inactive: [1] 4.25 µM | [2] 2.08 µM | [3] 7.41 µM | [4] 7.69 µM | [5] 7.21 µM | [6] 3.79 µM | [7] 4.66 µM | [8] 2.62 µM | [9] 5.13 µM | [10] 13.8 µM | [11] 12.4 µM | [12] 10.1 µM | [13] 4.8 µM | [14] 23.3 µM | [15] 1.2 µM
